Data as given in publication PMC10343299, “S-Ethyl-Isothiocitrullin-Based Dipeptides and 1,2,4-Oxadiazole Pseudo-Dipeptides: Solid Phase Synthesis and Evaluation as NO Synthase Inhibitors” (Molecules, 2023).

Target: T1, mouse iNOS (Mus musculus, UniProt P29477)
T1 construct: Full-length recombinant rat nNOS, mouse iNOS, bovine eNOS; made in house; host or cells: Escherichia coli
T1 sequence (P29477 1-1144): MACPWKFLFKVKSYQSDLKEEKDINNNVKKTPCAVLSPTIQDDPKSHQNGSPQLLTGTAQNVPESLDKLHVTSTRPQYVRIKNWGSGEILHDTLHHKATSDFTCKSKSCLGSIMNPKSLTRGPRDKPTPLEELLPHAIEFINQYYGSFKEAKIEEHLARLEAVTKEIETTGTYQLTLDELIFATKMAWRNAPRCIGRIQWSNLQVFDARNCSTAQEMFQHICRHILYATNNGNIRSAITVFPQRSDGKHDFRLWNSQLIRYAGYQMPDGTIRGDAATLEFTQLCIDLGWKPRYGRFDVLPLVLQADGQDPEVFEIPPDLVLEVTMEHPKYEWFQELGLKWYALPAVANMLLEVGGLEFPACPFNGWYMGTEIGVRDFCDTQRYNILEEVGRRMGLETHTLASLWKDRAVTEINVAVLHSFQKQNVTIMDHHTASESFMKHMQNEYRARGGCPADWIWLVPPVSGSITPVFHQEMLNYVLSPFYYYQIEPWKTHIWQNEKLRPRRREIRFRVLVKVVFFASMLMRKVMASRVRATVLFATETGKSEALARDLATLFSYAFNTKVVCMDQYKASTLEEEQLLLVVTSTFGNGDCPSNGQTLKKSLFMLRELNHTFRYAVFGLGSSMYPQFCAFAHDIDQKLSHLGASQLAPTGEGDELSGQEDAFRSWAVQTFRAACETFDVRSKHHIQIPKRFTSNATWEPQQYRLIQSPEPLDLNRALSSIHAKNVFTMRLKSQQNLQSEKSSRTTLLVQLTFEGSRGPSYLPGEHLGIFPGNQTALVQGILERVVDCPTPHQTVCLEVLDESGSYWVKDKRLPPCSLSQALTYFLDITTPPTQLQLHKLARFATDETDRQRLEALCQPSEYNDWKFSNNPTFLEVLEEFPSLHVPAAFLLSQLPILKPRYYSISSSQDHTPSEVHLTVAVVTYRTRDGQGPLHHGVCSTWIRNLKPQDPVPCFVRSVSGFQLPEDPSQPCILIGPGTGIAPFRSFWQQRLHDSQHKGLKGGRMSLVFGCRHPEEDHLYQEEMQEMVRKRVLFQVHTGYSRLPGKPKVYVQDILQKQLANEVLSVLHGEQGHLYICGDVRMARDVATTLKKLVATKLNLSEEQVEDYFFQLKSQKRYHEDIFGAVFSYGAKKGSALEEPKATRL
Test: NOS inhibition, oxyhemoglobin (hemoglobin capture) test, recombinant iNOS
Type: biochemical
Settings: dipeptide-like series, recombinant enzyme, 20 µM arginine, triplicate, NI = <50% inhibition at 100 μM
In short: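 Full-length E. coli-expressed recombinant enzyme; NO formation followed kinetically at 401 nm via oxyhemoglobin capture at 30 °C in 100 mM Hepes pH 7.5 with NADPH, BH4, FAD, FMN, DTT; arginine 20 µM (iNOS) or 10 µM (nNOS, plus calmodulin and CaCl2). Screened at 100 and 10 μM; IC50 if >50% inhibition at 100 μM.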

| SMILES | IC50 [µM] | inhibition at 100 µM (read-out: IC50 (μM) iNOS (Mouse)) [%] |
| --- | --- | --- |
| CCSC(=N)NCCC[C@H](N)C(=O)N[C@H]1CCCN(Cc2ccccc2)C1 [Compound 7] | 73.4 |  |
| CCSC(=N)NCCC[C@H](N)C(=O)N[C@H]1CCCN(Cc2ccc(Cl)c(C(F)(F)F)c2)C1 [Compound 17] | 12.9 |  |
| CCSC(=N)NCCC[C@H](N)C(=O)N[C@H]1CCCN(Cc2cccc(-c3cccc(C(=O)O)c3)c2)C1 [Compound 27] |  | < 50 |
